Laboratory results from patent US7846469B2, “Reversible inhibition of sperm receptor synthesis for contraception” (The Penn State Research Foundation, priority 2006, dated 2010).
Where “and” joins values, the source holds several entries; their conditions need not be identical. Identical values can stand only once.

What was measured:
[1] = system: chicken ZPC; assay: Western blot for chicken ZPC in isolated hen granulosa cells treated with nicarbazin; assay type: cell-based
Method: FIG. 1 is a Western blot of chicken ZPC proteins.
In a preliminary effort to support this hypothesis, we isolated granulosa cells from primary follicles of a laying hen, and suspended them in a simple cell culture media (1 ml medium (M)199-HEPES supplemented with Hank salts (Gibco-BRL) plus 1 ml Dulbecco modified Eagle medium (DMEM) containing 5% FBS). […] The cells were then disrupted with a sonicator and proteins precipitated and heat solubilized per Barbato et al. (1998). Proteins were concentrated, separated via gel electrophoresis and western blot performed with antibodies to chicken ZPC.

[2] = system: Pekin Ducks; assay: Dose-response feeding study in Pekin ducks: egg production and fertility; assay type: in vivo, duck
From the text: FIG. 3 depicts the fertility of laid eggs obtained from Pekin Ducks fed varying doses of nicarbazin.
(§1) [Images were taken at 20× magnification with DAPI fluorescent stain.]
(§2) Our first study determined the dose-response relationship for the effect of nicarbazin in reducing egg production and/or hatchability in ducks.
Since all hens in this experiment were artificially inseminated with sperm from untreated drakes, the effects on subsequent fertility were considered to be due entirely to the effect of nicarbazin on the female ducks. […] Further, upon the withdrawal of nicarbazin-treated feed, even the hens receiving the highest dose of nicarbazin returned to normal egg production and fertility within 10 days.

[3] = DNC concentrations in blood and laid eggs of ducks fed nicarbazin; assay type: in vivo, duck; details: 31.25-500 ppm in feed
From the text: as §2

[4] = system: ZPC; assay: Western blot of ZPC in oocyte (perivitelline) membrane of laid eggs from fed ducks; assay type: in vivo, duck
From the text: Drug feeding began in Week 2; making Week 1 and internal control.
A subsample of eggs were collected during each week of the experiment, in order to dissect, extract and identify the ZPC in the oocyte membrane using and anti-ZPC antibody and western blotting technique. FIG. 4 illustrates that at the 500 ppm dose of nicarbazin, ZPC was undetectable after the 1st week of treatment, and remained absent thereafter.

[5] = system: sperm attaching to the oocyte; assay: Sperm count on oocyte membrane of eggs from fed, inseminated ducks; assay type: in vivo, duck; details: membranes of eggs from nicarbazin-treated ducks
From the text: as §1
Since there appeared to be a decrease in the amount of ZPC (the primary sperm receptor) present in the duck oocyte membranes, we reasoned that the lack of fertility in any laid eggs should be due to a decline in sperm attaching to the oocyte. FIG. 5 illustrates a pair of sample membranes from both control and nicarbazin treated ducks. Consistent with previous data from our lab (e.g., Barbato et al., 1998) 228±15 sperm/mm2 of oocyte membrane were found in eggs from control ducks, whereas there were 0±15 sperm/mm2 counted on the membranes from nicarbazin-treated ducks.

[6] = system: inner perivitelline membrane (85% ZPC protein); assay: Electron microscopy of inner perivitelline membrane of mature follicle from fed laying hens; assay type: in vivo, chicken; details: 250 ppm nicarbazin treated feed
From the text: FIG. 6 is an electron micrograph of a mature follicle from control (C) and nicarbazin treated (T) hens.
As a follow-up experiment, we fed a group of 6 laying hens the 250 ppm nicarbazin treated feed, in an attempt to reduce, but not eliminate, ZPC synthesis. Egg membranes were collected from laid eggs and the most mature follicle dissected from both treated and control hens. The membranes were fixed with osmium tetroxide, sectioned via microtome and viewed with electron microscopy.
This micrograph provides direct, visual confirmation of the previously presented data: that is, that oral nicarbazin dosages reduces the ZP3 content of the oocyte membrane.

[7] = system: rat ZPC; assay: Western blot for ZPC in rat ovarian tissue after 1 week of nicarbazin feeding; assay type: in vivo; details: 500 ppm with 5% propylene glycol, band at approx. 50 kDa
From the text: FIG. 7 is a Western Blot (using mouse ZPC monoclonal antibody) of rat ovarian tissue after 1 week of nicarbazin feeding. [mZPC-mab 1:2000; similar results obtained with dilution of 1:5000 and 1:10000.
(§3) In an attempt to increase nicarbazin absorption in a mammalian species we paired nicarbazin with a typical pharmaceutical carrier, 5% propylene glycol (PGC). A 500 ppm dose was fed to 8 adult, female rats for a 7-day period, at which time the rats were killed and the ovaries removed and placed in RNAlater (to preserve protein, RNA and DNA—4 control rats were also sacrificed). Ovarian proteins and mRNA were extracted via standard laboratory protocols. FIG. 7 illustrates the results of a western blot for ZPC, using a murine monoclonal antibody (which cross-reacts with rat ZPC).

[8] = system: rat ZPC mRNA; assay: Quantitative rtPCR of ZPC (ZP3) mRNA copy number in rat ovarian tissue; assay type: in vivo
From the text: as §3
Upon finding a reduction in ZPC-immunoreactive band intensity from ovarian samples obtained from treated animals, we designed PCR primers to identify mRNA for rat ZPC. By applying the quantitative rtPCR technique we were able to estimate the number of copies of the ZPC mRNA that were present in the ovarian tissue samples.

[9] = system: mice; assay: Direct feeding experiment with mating pairs of mice; assay type: in vivo, mouse
Method: The indirect biochemical evidence in the previous section led us to attempt a direct feeding experiment with mice. In this case, mice were fed a 0.5% nicarbazin diet (containing 5% propylene glycol). In addition, 7.5% peanut butter was added to the diet to increase palatability. Ten mating pairs of mice were given access to the diet for 4-5 hrs over a […].

[10] = system: fruit fly; assay: Nicarbazin in fruit fly media; assay type: in vivo; details: ethanol carrier
Method: According to the invention, nicarbazin specifically influences the expression of the zona pellucida 3 gene and protein in vertebrates. It is expected that other homologs of the ZP3 gene will also be negatively affected by nicarbazine. For example, there is an insect homolog of ZP3 that is a structural component of the wing vein. Nicarbazin interferes with the expression of the insect homolog in the same manner as the vertebrate Gene.
In a quick experiment, 3-5% nicarbazin preparation was added to the media (food) in fruit fly vials using ethanol as a carrier (since fruit flies are attracted to ethanol).

[11] = system: broiler-breeder hens; details: cited from earlier work
[12] = system: FDRL rats; details: high dose (300 mg/kg bw per day phenylurea, 100 mg/kg bw per day pyrimidone), F2a and F3a litters; cited from earlier work

equimolar complex of 1,3-N,N′-bis(4-nitrophenyl)urea and 4,6-dimethyl-2(1H)-pyrimidone [nicarbazin]
cell viability ([1]; 100 mM nicarbazin, granulosa cells): all cells were dead | immunoreactive ZPC (western blot) ([1]; granulosa cells from primary follicles of a laying hen, lanes 4-6 (1, 10, 100 mM nicarbazin)): absence of immunoreactive ZPC | fertility of eggs ([2]; 500 ppm nicarbazin ducks, inseminated with 200 million sperm, of 5 eggs set): 20% | egg production ([2]; ducks fed 31.25-500 ppm, FIG. 2): decline in egg production | time to return to normal egg production and fertility after withdrawal ([2]; highest dose, after withdrawal of nicarbazin-treated feed): ≤ 10 days | fertility of eggs laid by treated hens ([2]; oral doses 31.25-500 ppm, hens inseminated with sperm from untreated drakes, FIG. 3): profound effect | DNC concentrations in blood and laid eggs versus fed nicarbazin dose [3]: linear dose-concentration relationship | ZPC in oocyte membrane (western blot) ([4]; 250 ppm dose, over time): clear decline in the intensity of ZPC | ZPC in oocyte membrane (western blot) ([4]; 500 ppm dose, after the 1st week of treatment): undetectable | sperm on oocyte membrane [5]: 0±15 sperm/mm2 | width of the inner perivitelline membrane (electron micrograph) [6]: reduction in width | ZPC immunoreactive band intensity (western blot) [7]: reduction in intensity | ZP3 mRNA copy number, mean of triplicate estimate per rat ([8]; individual rats fed nicarbazin 500 ppm for 1 week, ovarian tissue): 0.47 and 0.95 (2×) and 0.75 and 0.50 and 0.85 and 0.77 | ZP3 mRNA copy number, overall mean ([8]; rats fed nicarbazin for 1 week, ovarian tissue, control overall mean 1.00, P = 0.03): 0.71 | reduction in copy number of the ZPC gene ([8]; rats fed nicarbazin versus control): 30% | conception rate ([9]; mice, 0.5% nicarbazin diet with 5% propylene glycol and 7.5% peanut butter, ten mating pairs, non-treated 90%): 10% | pups per litter ([9]; mice, 0.5% nicarbazin diet, non-treated averaging 6 pups per litter): 0.2 pups/litter | reversibility after removal of treated feed ([9]; previously treated mice mated over the next month): conceived normal litters | teratogenic effects in pups ([9]; pups of treated mice): no sign of teratogenic effects | fly phenotype ([10]; 3% nicarbazin preparation in media): deformed wings and could not fly | hatching of fruit fly eggs ([10]; 5% nicarbazin preparation in media): did not hatch | time to return of normal hatchability and egg production after removal of nicarbazin from feed ([11]; after removal from the feed): 7 to 10 days | egg production ([11]; higher levels (ca. 700 ppm) in feed): eliminated egg production entirely | hatchability of fertile eggs ([11]; lower levels of nicarbazin (<125 ppm) in feed): significant reduction in hatchability | litter size [12]: slightly fewer pups
